Data from patent publication US11717511B2, “Pharmaceutical composition comprising derivative compound of 1,2-naphthoquinone for preventing or treating solid cancer or blood cancer” (HUEN Co., Ltd., priority 2018, dated 2023).

Assays:
[1] = system: HeLa (cervix adenocarcinoma) cells; test: Cell viability of solid cancer cells, WST assay, HeLa; format: cell-based; settings: Homo sapiens, 1-30 μM, 6 hours
From the text: (§1) To investigate availability as a medicine for solid cancer, A549 cell line obtained from a -person with lung carcinoma, HeLa cell line obtained from a person with cervix adenocarcinoma, HepG2 cell line obtained from a child with hepatocellular carcinoma, MCF7 cell line obtained from a person with breast adenocarcinoma, and Beas-2B cell line obtained from normal lung for comparison with solid cancer cell line were used.
(§2) A549 (lung carcinoma), HeLa (cervix adenocarcinoma), HepG2 (hepatocellular carcinoma), MCF7 (breast adenocarcinoma), and Beas-2B (normal lung) cell lines were incubated in DMEM medium containing 10% FBS at 37 °C in a 5% CO2 incubator, and subcultured every 2 days before use in the test.
(§3) A549 (lung carcinoma), HeLa (cervix adenocarcinoma), HepG2 (hepatocellular carcinoma), MCF7 (breast adenocarcinoma), and Beas-2B (normal lung) cells were seeded at 1×10^4 cells/well in a 96-well plate, and then for cell stabilization, the cells were incubated at 37 °C in a 5% CO2 incubator for 16 hours or longer. Thereafter, the cells were treated with compounds 99, 163, 191, and 192 (1-30 μM) out of the compounds synthesized in Example 1-1, and then incubated for 6 hours. DMSO and β-lapachone were used as a control. After 4 hours of incubation, 10 μl of WST solution was added to the cells, followed by incubation for 2 hours, and then the absorbance at 450 nm was measured by a multi-scan machine. The cell viability of A549 (lung carcinoma), HeLa (cervix adenocarcinoma), HepG2 (hepatocellular carcinoma), MCF7 (breast adenocarcinoma), and Beas-2B (normal lung) cells is shown in Table 5 and FIG. 5.

[2] = system: HepG2 (hepatocellular carcinoma) cells; test: Cell viability of solid cancer cells, WST assay, HepG2; format: cell-based; settings: Homo sapiens, 1-30 μM, 6 hours
From the text: as §1, §2, §3

[3] = system: MCF7 (breast adenocarcinoma) cells; test: Cell viability of solid cancer cells, WST assay, MCF7; format: cell-based; settings: Homo sapiens, 1-30 μM, 6 hours
From the text: as §1, §2, §3

[4] = system: K562 cells (chronic myeloid leukemia); test: Cell viability of K562 cells, WST assay; format: cell-based, human; settings: 0.1-5 μM
Procedure: K562 cells obtained from a -person with chronic myeloid leukemia were incubated in RPMI medium containing 10% fetal bovine serum (FBS) at 37 °C in a 5% CO2 incubator, and subcultured every 2 days before use in the test.
K562 cells incubated in Example 3-1 were seeded at 1×10^5 cells/well in a 96-well plate, and then for cell stabilization, the cells were incubated at 37 °C in a 5% CO2 incubator for 16 hours or longer. Thereafter, the cells were treated with compounds 99, 163, 191, and 192 (0.1-5 μM) out of the compounds synthesized in Example 1-1, and then incubated for 4 hours. DMSO was used as a control. After 4 hours of incubation, 10 μl of WST solution was added to the cells, followed by incubation for 2 hours, and then the absorbance at 450 nm was measured by a multi-scan machine.

[5] = system: A549 (lung carcinoma) cells; test: Cell viability of solid cancer cells, WST assay, A549; format: cell-based; settings: Homo sapiens, 1-30 μM, 6 hours
From the text: as §1, §2, §3

[6] = system: KG1α cells (refractory acute myeloid leukemia); test: Cell viability of KG1α cells, WST assay; format: cell-based, human; settings: 0.1-3 μM
Procedure: Acute leukemia has been identified to have a wide variety of causative factors and a variety of cell lines have also been established. To investigate the availability as a wide-spectrum medicine but not a medicine for a particular type of acute leukemia, KG1α cells were constructed by selecting only cells having a stem cell phenotype from KG1 cells, which are a cell line obtained from a -person with acute myeloid leukemia, and then used.
KG1α cells were incubated in IMDM containing 20% fetal bovine serum (FBS). All the cells were incubated at 37 °C in a 5% CO2 incubator, and subcultured every 2 or 3 days before use in the test.
KG1α cells, which have resistance to idarubicin and cytarabine, which are acute myeloid leukemia medicines, are refractory acute myeloid leukemia (AML) cells. KG1α cells incubated in Example 2-1 were seeded at 1×10^5 cells/well in a 96-well plate, and then for cell stabilization, the cells were incubated at 37 °C in a 5% CO2 incubator for 16 hours or longer. Thereafter, the cells were treated with compounds 99 and 163 (0.1-3 μM) shown in Table 4 out of the compounds synthesized in Example 1, and then incubated for 24 hours. […] After 24 hours, the cells were treated with 10 μl of WST solution and then incubated for 2 hours, and then the absorbance at 450 nm was measured by a multi-scan machine.

**Q.** What does the source list for `Cn1nc2c(n1)-c1ccccc1C(=O)C2=O` [Compound 191]?
**A.** IC50 [1]: 6.6 µM; IC50 [2]: 13.8 µM; IC50 [3]: 14.8 µM; IC50 ([4]; 4 hours): 1.6 µM; IC50 ([4]; Homo sapiens, K562, 4 h): 1 to 2 µM; IC50 [5]: 8.4 µM

**Q.** With `Cn1nnc2c1C(=O)C(=O)c1ccccc1-2` [Compound 192] as the compound, how does the IC50 [1] read?
**A.** 4.4 µM

**Q.** And the IC50 [2]?
**A.** 12.2 µM

**Q.** And the IC50 [3]?
**A.** 11.7 µM

**Q.** And the IC50 ([4]; 4 hours)?
**A.** 1.2 µM

**Q.** And the IC50 ([4]; Homo sapiens, K562, 4 h)?
**A.** 1 to 2 µM

**Q.** And the IC50 [5]?
**A.** 5 µM

**Q.** How did the IC50 [1] turn out when `CC(C)c1nc2c(s1)C(=O)C(=O)c1ccccc1-2` [Compound 163] was run?
**A.** 4.6 µM

**Q.** What about the IC50 [2] of the same compound?
**A.** 14.1 µM

**Q.** What about the IC50 [3] of the same compound?
**A.** 13 µM

**Q.** And the IC50 ([6]; 24 hours)?
**A.** 0.9 µM

**Q.** And the IC50 ([6]; Homo sapiens, KG-1, 24 h)?
**A.** 0.5 to 1 µM

**Q.** What about the IC50 ([4]; Homo sapiens, K562, 4 h) of the same compound?
**A.** 2.1 µM

**Q.** What about the IC50 [5] of the same compound?
**A.** 6.1 µM
